Measured values as given in article PMC9919735, “Cupressus arizonica Greene: Phytochemical Profile and Cosmeceutical and Dermatological Properties of Its Leaf Extracts” (Molecules, 2023).

Assays:
hyaluronidase enzyme = assay: hyaluronic acid degradation, DMAB colorimetric, absorbance […] nm; format: biochemical; conditions: hyaluronic acid 1 mg/mL in 0.1 M acetate pH 3.5, CaCl2; positive control
[1] = molecular target: T1, Collagenase enzyme, from Clostridium histolyticum (ChC); assay: FALGPA hydrolysis, absorbance […] nm; format: biochemical, Hathewaya histolytica; conditions: Tricine buffer 50 mM, 400 mM NaCl, 10 mM CaCl2, pH 7.5, 15 min preincubation; positive control
T1 construct: gene colG; native enzyme preparation, ColG / ColH not distinguished

Row | Structure (SMILES) | Parameters IC50 (μg/mL) / Hyaluronidase (hyaluronidase enzyme) | Parameters IC50 (μg/mL) / Collagenase [1]
1 | O=c1cc(CO)occ1O [Kojic acid] | 14.46 ± 0.6 µg/mL | –
2 | O=c1c(O)c(-c2ccc(O)c(O)c2)oc2cc(O)cc(O)c12 [Quercetin] | – | 24.83 ± 1.8 µg/mL
